The record followed here is patent US6218102A, “Synthetic peptides and mixtures thereof for detecting HIV antibodies” (priority 1988, dated 2001).

Ends that are not written are not given here. Peptide text beside a SMILES is read from it.

The test system of one assay is Antibodies to HIV-1. The experiment in a line: ELISA with peptide or peptide mixture as antigen, identifying HIV-1 positive sera. Type of assay: binding, human. The following applies: single p 24 peptide, Free, HIV-1 positive sera, Table 3. How it is done: According to this test a peptide or a peptide mixture of the present invention is adsorbed onto the wells of a microtiter plate. The wells are then treated with sera to be tested. After washing, anti-human IgG labeled with peroxidase is added to the wells. The determination of the peroxidase is performed with a corresponding substrate, e.g. with o-phenylene diamine. Also in this procedure the peroxidase can be exchanged by another label, e.g. by a radioactive or fluorescence label.
Each well of the microtiter plate is saturated with 100 μl of a solution containing a peptide or mixture of peptides (5 μg/ml) and left overnight. The wells are emptied and washed twice with a washing buffer (Tris, 0.043M; NaCl, 0.5M; thimerosal, 0.01% w/v; Tween 20, 0.05% v/v; pH7.4). The wells are then saturated with 0.35 ml of washing buffer for 1 hr. at 37° C. and washed once with the same buffer. Serum samples to be analyzed are diluted with specimen buffer (washing buffer plus casein, 0.05% w/v). The wells are rinsed with washing buffer prior to the addition of the diluted serum sample (0.1 ml). These are left to incubate for 1 hr. at room temperature. The wells are then emptied, washed twice rapidly and then once for two minutes with washing buffer. […] The wells are then emptied and washed twice rapidly with washing buffer and then five times in which the buffer was in contact with the well 2 minutes per washing. The substrate solution (3,3', 5,5'-tetramethylbenzidine, 8 mg per ml of DMSO) is diluted with 100 volumes 0.1M citrate-acetate buffer, pH 5.6 containing 0.1% v/v of 30% H2 O2 and added to each well (0.1 ml per well). After 10 minutes the contents of each well is treated with 0.1 ml 2N H2 SO4 and the optical density read at 450 nm. All determinations are done in duplicate.
(An ELISA detects its analyte on a solid surface through an enzyme-linked reagent.)
For “CGRAEQASQEVKN [Peptide 46, NH2 -CGRAEQASQEVKN-COOH]”, the “% Positive Sera Correctly Identified” value came out at 0%.
Take “CGNNPPIPVGE [Peptide 41, NH2 -CGNNPPIPVGE-COOH]”: the “% Positive Sera Correctly Identified” value is given as 63%.

Still in this assay, the particulars now being: single p 24 peptide, coupled, HIV-1 positive sera, Table 3.
With “CGRAEQASQEVKN [Peptide 46, NH2 -CGRAEQASQEVKN-COOH]”, the “% Positive Sera Correctly Identified” value was 93%.
In the case of “CGNNPPIPVGE [Peptide 41, NH2 -CGNNPPIPVGE-COOH]”, the “% Positive Sera Correctly Identified” value turned out to be 73%.

Still in this assay, the particulars now being: single peptide, known HIV-1 positive sera, Table 3.
For the molecule “NH2 -FAFAFGCSGKLICTTAVPWNASWSNKSLEQI-COOH [Peptide 91]”, the “% Positive Sera Correctly Identified” value amounted to 94%.
As to “NH2 -VERYLKDQQLLGIWGCSGKLICTTAVPWNAS-COOH (H-VERYLKDQQLLGIWGCSGKLICTTAVPWNAS-OH; cysteine pairing not given here) [Peptide 81, gp 41 590-620]”, the “% Positive Sera Correctly Identified” value worked out at 100%.
Regarding “NH2 -GCSGKLICTTAVPWNASWSWSNKSLEQI-COOH [Peptide 95]”, the “% Positive Sera Correctly Identified” value is listed as 100%.
On to GHACVPTDPNPQEVVL [Peptide 14], for which the “% Positive Sera Correctly Identified” value is reported as 50%.
Turning to “NH2 -SGKLICTTAVPWNASWSNKSLEQGC-COOH [Peptide 56]”, the “% Positive Sera Correctly Identified” value was 100%.
Turning to CGKIEPLGVAPTKAKRRVVQREKR [Peptide 71], the “% Positive Sera Correctly Identified” value stood at 83%.
Turning to “NH2 -IWGCSGKLICTTAVPWNAS-COOH (H-IWGCSGKLICTTAVPWNAS-OH; cysteine pairing not given here) [Peptide 78, gp 41 602-620]”, the “% Positive Sera Correctly Identified” value is given as 100%.
On to “TKAKRRVVQREKRGAVGIGALFLGFLGAAGSG [Peptide 93]”, for which the “% Positive Sera Correctly Identified” value came out at 37%.
Take TTAVPWNASWSNKSLEQGC [Peptide 42]: the “% Positive Sera Correctly Identified” value was 5%.
As to “NH2 -CGVERYLKQQLLGIWGCSGKLICTTAVPWNASWSNKSLEQI-COOH [Peptide 99]”, the “% Positive Sera Correctly Identified” value was 100%.
As to `CC[C@H](C)[C@H](NC(=O)[C@H](CCC(N)=O)NC(=O)[C@H](CCC(=O)O)NC(=O)[C@H](CC(C)C)NC(=O)[C@H](CO)NC(=O)[C@H](CCCCN)NC(=O)[C@H](CC(N)=O)NC(=O)[C@H](CO)NC(=O)[C@H](Cc1c[nH]c2ccccc12)NC(=O)[C@H](CO)NC(=O)[C@H](C)NC(=O)[C@H](CC(N)=O)NC(=O)[C@H](Cc1c[nH]c2ccccc12)NC(=O)[C@@H]1CCCN1C(=O)[C@@H](NC(=O)[C@H](C)NC(=O)[C@@H](NC(=O)[C@@H](NC(=O)[C@@H]1CSSC[C@H](NC(=O)CN)C(=O)N[C@@H](CO)C(=O)NCC(=O)N[C@@H](CCCCN)C(=O)N[C@@H](CC(C)C)C(=O)N[C@@H]([C@@H](C)CC)C(=O)N1)[C@@H](C)O)[C@@H](C)O)C(C)C)C(=O)O` [Peptide 96] (HELM PEPTIDE1{G.C.S.G.K.L.I.C.T.T.A.V.P.W.N.A.S.W.S.N.K.S.L.E.Q.I}$PEPTIDE1,PEPTIDE1,2:R3-8:R3$$$V2.0), the “% Positive Sera Correctly Identified” value is recorded as 100%.
On to “NH2 -CGLGIWGCSGKLICTTAVPWNASWSNKSLEQI-COOH [Peptide 98]”, for which the “% Positive Sera Correctly Identified” value worked out at 100%.
With “NH2 -CGYLKDQQLLGIWGCSGKLICTTAVPWNASWSNKSLEQI-COOH [Peptide 97]”, the “% Positive Sera Correctly Identified” value is listed as 100%.
